Results taken from PubChem BioAssay AID248 (DTP/NCI, 2004).
Values joined by “and” are separate entries in the source; they are usually repeats but may differ in a detail not shown here. Identical values can stand only once. Inconclusive results and toxic doses are left out. Rule as the data show it: active = T/C of 150% or more; inactive = T/C below 125%.

Tested on: L1210 leukemia ip in BDF1 mice, survival T/C
Assay: NCI In Vivo Anticancer Drug Screen. Data for tumor model L1210 Leukemia (intraperitoneal) in B6D2F1 (BDF1) mice
Conditions: endpoint: mean survival time, higher = longer survival
Summary of the method: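 Tumor was transplanted into mice, which were then dosed with test compound or vehicle alone. Survival was recorded for each group, and the treated figure was expressed relative to the control figure.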

[1] = dose: 100.0 mg/kg/injection, schedule: Q04DX003 (ip), vehicle: saline
[2] = dose: 75.0 mg/kg/injection, schedule: Q01DX001 (ip), vehicle: saline
[3] = dose: 150.0 mg/kg/injection, schedule: Q01DX001 (ip), vehicle: saline
[4] = dose: 100.0 mg/kg/injection, schedule: Q01DX001 (ip), vehicle: carboxymethylcellulose (CMC)
[5] = dose: 200.0 mg/kg/injection, schedule: Q01DX001 (ip), vehicle: carboxymethylcellulose (CMC)
[6] = dose: 400.0 mg/kg/injection, schedule: Q01DX001 (ip), vehicle: carboxymethylcellulose (CMC)
[7] = dose: 100.0 mg/kg/injection, schedule: Q01DX001 (ip), vehicle: Klucel (hydroxypropylcellulose) (HPC)
[8] = dose: 100.0 mg/kg/injection, schedule: Q01DX009 (ip), vehicle: Klucel (hydroxypropylcellulose) (HPC)
[9] = dose: 200.0 mg/kg/injection, schedule: Q01DX001 (ip), vehicle: Klucel (hydroxypropylcellulose) (HPC)
[10] = dose: 200.0 mg/kg/injection, schedule: Q01DX009 (ip), vehicle: Klucel (hydroxypropylcellulose) (HPC)
[11] = dose: 400.0 mg/kg/injection, schedule: Q01DX001 (ip), vehicle: Klucel (hydroxypropylcellulose) (HPC)
[12] = dose: 400.0 mg/kg/injection, schedule: Q01DX009 (ip), vehicle: Klucel (hydroxypropylcellulose) (HPC)

Measured: T/C

CC(N)Cc1ccccc1 (stereo not given)
inactive: dose: 1.17 mg/kg/injection, schedule: Q04DX003 (ip), vehicle: saline 98 % of control | dose: 2.34 mg/kg/injection, schedule: Q04DX003 (ip), vehicle: saline 98 % of control | dose: 2.5 mg/kg/injection, schedule: Q04DX003 (ip), vehicle: saline 100 % of control | dose: 4.68 mg/kg/injection, schedule: Q01DX009 (ip), vehicle: saline 94 % of control | dose: 4.68 mg/kg/injection, schedule: Q04DX003 (ip), vehicle: saline 93 % of control | dose: 5.0 mg/kg/injection, schedule: Q04DX003 (ip), vehicle: saline 96 % of control | dose: 6.25 mg/kg/injection, schedule: Q01DX009 (ip), vehicle: saline 103 % of control | dose: 9.37 mg/kg/injection, schedule: Q01DX009 (ip), vehicle: saline 93 % of control | dose: 9.37 mg/kg/injection, schedule: Q04DX003 (ip), vehicle: saline 106 % of control | dose: 10.0 mg/kg/injection, schedule: Q04DX003 (ip), vehicle: saline 97 % of control | dose: 12.5 mg/kg/injection, schedule: Q01DX001 (ip), vehicle: saline 96 % of control | dose: 12.5 mg/kg/injection, schedule: Q01DX009 (ip), vehicle: saline 97 % of control | dose: 18.74 mg/kg/injection, schedule: Q04DX003 (ip), vehicle: saline 107 % of control | dose: 18.75 mg/kg/injection, schedule: Q01DX009 (ip), vehicle: saline 87 % of control | dose: 18.75 mg/kg/injection, schedule: Q04DX003 (ip), vehicle: saline 97 % of control | dose: 20.0 mg/kg/injection, schedule: Q04DX003 (ip), vehicle: saline 97 % of control | dose: 25.0 mg/kg/injection, schedule: Q01DX001 (ip), vehicle: saline 101 % of control | dose: 25.0 mg/kg/injection, schedule: Q01DX009 (ip), vehicle: saline 100 % of control | dose: 25.0 mg/kg/injection, schedule: Q04DX003 (ip), vehicle: saline 100 % of control | dose: 37.48 mg/kg/injection, schedule: Q03HX024 (ip), vehicle: saline 96 % of control | dose: 37.5 mg/kg/injection, schedule: Q01DX009 (ip), vehicle: saline 103 % of control | dose: 37.5 mg/kg/injection, schedule: Q04DX003 (ip), vehicle: saline 108 % of control | dose: 40.0 mg/kg/injection, schedule: Q04DX003 (ip), vehicle: saline 103 % of control | dose: 50.0 mg/kg/injection, schedule: Q01DX001 (ip), vehicle: saline 109 % of control | dose: 50.0 mg/kg/injection, schedule: Q01DX009 (ip), vehicle: saline 101 % of control | dose: 50.0 mg/kg/injection, schedule: Q04DX003 (ip), vehicle: saline 100 % of control | dose: 75.0 mg/kg/injection, schedule: Q04DX003 (ip), vehicle: saline 100 % of control | dose: 100.0 mg/kg/injection, schedule: Q01DX001 (ip), vehicle: saline 102 % of control | [1] 105 % of control

CSc1nsc2nnc(N)n12
inactive: [2] 89 % of control | [3] 102 % of control

CCCCN(C)/N=N/c1nc[nH]c1C(=O)OCC
inactive: [4] 96 % of control | [5] 109 % of control | [6] 124 % of control

C1C2CC3CC1CC(C2)C31CO1 (stereo not given)
inactive: dose: 100.0 mg/kg/injection, schedule: Q04DX002 (ip), vehicle: Klucel (hydroxypropylcellulose) (HPC) 90 % of control | dose: 200.0 mg/kg/injection, schedule: Q04DX002 (ip), vehicle: Klucel (hydroxypropylcellulose) (HPC) 90 % of control | dose: 400.0 mg/kg/injection, schedule: Q04DX002 (ip), vehicle: Klucel (hydroxypropylcellulose) (HPC) 105 % of control

NC(=O)N/N=C1/CCSc2ccc3c(c21)CCCC3
inactive: [7] 102 % of control | [8] 106 % of control | [9] 93 % of control | [10] 104 % of control | [11] 94 % of control | [12] 101 % of control

Nc1ccc(C(=O)O)c(O)c1
inactive: dose: 37.88 mg/kg/injection, schedule: Q01DX Z (ip), vehicle: carboxymethylcellulose (CMC) 105 % of control | dose: 75.75 mg/kg/injection, schedule: Q01DX Z (ip), vehicle: carboxymethylcellulose (CMC) 96 % of control | [4] 97 % of control | dose: 100.0 mg/kg/injection, schedule: Q01DX009 (ip), vehicle: saline with Tween-80 104 % of control | dose: 100.0 mg/kg/injection, schedule: Q04DX003 (ip), vehicle: saline with Tween-80 96 % of control and 97 % of control | dose: 151.5 mg/kg/injection, schedule: Q01DX Z (ip), vehicle: carboxymethylcellulose (CMC) 96 % of control | [5] 97 % of control | dose: 200.0 mg/kg/injection, schedule: Q01DX009 (ip), vehicle: saline with Tween-80 97 % of control | dose: 200.0 mg/kg/injection, schedule: Q04DX003 (ip), vehicle: saline with Tween-80 95 % of control and 103 % of control | dose: 303.0 mg/kg/injection, schedule: Q01DX Z (ip), vehicle: carboxymethylcellulose (CMC) 95 % of control | [6] 89 % of control | dose: 400.0 mg/kg/injection, schedule: Q01DX009 (ip), vehicle: saline with Tween-80 95 % of control | dose: 400.0 mg/kg/injection, schedule: Q04DX003 (ip), vehicle: saline with Tween-80 95 % of control and 101 % of control

COc1cc(OC)c(N=Nc2sc(N)nc2C)cc1Cl
inactive: [2] 92 % of control | [3] 97 % of control | dose: 300.0 mg/kg/injection, schedule: Q01DX001 (ip), vehicle: saline 94 % of control

COc1ccc(/C=C(\C#N)c2ccc([N+](=O)[O-])cc2)cc1OC
inactive: dose: 100.0 mg/kg/injection, schedule: Q04DX002 (ip), vehicle: saline with Tween-80 90 % of control | dose: 200.0 mg/kg/injection, schedule: Q04DX002 (ip), vehicle: saline with Tween-80 90 % of control | dose: 400.0 mg/kg/injection, schedule: Q04DX002 (ip), vehicle: saline with Tween-80 90 % of control

O=C(NCCCCCCCCCCCCNC(=O)Nc1cccc(C2=NCC(O)CN2)c1)Nc1cccc(C2=NCC(O)CN2)c1 (stereo not given)
inactive: dose: 62.5 mg/kg/injection, schedule: Q01DX Z (ip), vehicle: carboxymethylcellulose (CMC) 105 % of control | dose: 125.0 mg/kg/injection, schedule: Q01DX Z (ip), vehicle: carboxymethylcellulose (CMC) 94 % of control

CN(C)c1ccc(/C=C2\CC/C(=C\c3ccc(N(C)C)cc3)C2=O)cc1
inactive: [8] 105 % of control | [10] 97 % of control | [12] 89 % of control

O=c1ccsc(=S)[nH]1
inactive: dose: 100.0 mg/kg/injection, schedule: Q01DX001 (ip), vehicle: saline with Tween-80 101 % of control | dose: 200.0 mg/kg/injection, schedule: Q01DX001 (ip), vehicle: saline with Tween-80 104 % of control | dose: 400.0 mg/kg/injection, schedule: Q01DX001 (ip), vehicle: saline with Tween-80 97 % of control

COc1ccc2c3c(ccc2c1)C(=O)C(C)(C#N)CC3 (stereo not given)
inactive: dose: 100.0 mg/kg/injection, schedule: Q01DX009 (ip), vehicle: saline 88 % of control | [1] 89 % of control | dose: 200.0 mg/kg/injection, schedule: Q01DX009 (ip), vehicle: saline 91 % of control | dose: 200.0 mg/kg/injection, schedule: Q04DX003 (ip), vehicle: saline 89 % of control | dose: 400.0 mg/kg/injection, schedule: Q01DX009 (ip), vehicle: saline 95 % of control | dose: 400.0 mg/kg/injection, schedule: Q04DX003 (ip), vehicle: saline 94 % of control

CC[N+](C)(C)CCC#N
inactive: dose: 10.0 mg/kg/injection, schedule: Q01DX001 (ip), vehicle: saline 95 % of control | dose: 20.0 mg/kg/injection, schedule: Q01DX001 (ip), vehicle: saline 101 % of control | dose: 40.0 mg/kg/injection, schedule: Q01DX001 (ip), vehicle: saline 101 % of control

CC(C)CC(C)c1c(N)nc(N)[nH]c1=O (stereo not given)
inactive: [7] 97 % of control | [9] 103 % of control | [11] 109 % of control

CC(=O)CC(C)=Nc1cccc(N=C(C)CC(C)=O)c1
inactive: dose: 87.5 mg/kg/injection, schedule: Q04DX003 (ip), vehicle: saline with Tween-80 93 % of control | dose: 175.0 mg/kg/injection, schedule: Q04DX003 (ip), vehicle: saline with Tween-80 93 % of control | dose: 350.0 mg/kg/injection, schedule: Q04DX003 (ip), vehicle: saline with Tween-80 93 % of control
